# ChEMBL document CHEMBL4308841, “Synthesis, in vitro antiproliferative activity, and kinase inhibitory effects of pyrazole-containing diarylureas and diarylamides” (Eur J Med Chem, 2018)
# How the values were obtained:
# 786-0 = assay: Growth inhibition of human 786-0 cells assessed as cell growth at 0.1 uM incubated for 48 hrs by sulforhodamine B assay relative to control; format: functional; settings: 786-0, 48 h, read-out: Activity
# OVCAR-4 = assay: Growth inhibition of human OVCAR4 cells assessed as cell growth at 0.01 uM incubated for 48 hrs by sulforhodamine B assay relative to control; format: functional; settings: OVCAR-4, 48 h, read-out: Activity
# HOP-62 = assay: Growth inhibition of human HOP62 cells incubated for 48 hrs by sulforhodamine B assay; format: functional, cell-based; settings: HOP-62, 48 h
# MCF7 [1] = assay: Growth inhibition of human MCF7 cells incubated for 48 hrs by sulforhodamine B assay; format: functional, cell-based; settings: MCF7, 48 h
# A549 [2] = assay: Growth inhibition of human A549/ATCC cells assessed as cell growth at 1 uM incubated for 48 hrs by sulforhodamine B assay relative to control; format: functional; settings: A549, 48 h, read-out: Activity
# SNB-75 = assay: Growth inhibition of human SNB75 cells assessed as cell growth at 0.1 uM incubated for 48 hrs by sulforhodamine B assay relative to control; format: functional; settings: SNB-75, 48 h, read-out: Activity
# UO-31 = assay: Growth inhibition of human UO31 cells assessed as cell growth at 0.01 uM incubated for 48 hrs by sulforhodamine B assay relative to control; format: functional; settings: UO-31, 48 h, read-out: Activity
# Hs-578T = assay: Growth inhibition of human Hs578T cells assessed as cell growth at 0.01 uM incubated for 48 hrs by sulforhodamine B assay relative to control; format: functional; settings: read-out: Activity
# NCI-H460 [3] = assay: Growth inhibition of human NCI-H460 cells incubated for 48 hrs by sulforhodamine B assay; format: functional, cell-based; settings: NCI-H460, 48 h
# MCF7 [4] = assay: Growth inhibition of human MCF7 cells assessed as cell growth at 1 uM incubated for 48 hrs by sulforhodamine B assay relative to control; format: functional; settings: MCF7, 48 h, read-out: Activity
# CCRF-CEM = assay: Growth inhibition of human CCRF-CEM cells incubated for 48 hrs by sulforhodamine B assay; format: functional, cell-based
# ACHN [5] = assay: Growth inhibition of human ACHN cells assessed as cell growth at 1 uM incubated for 48 hrs by sulforhodamine B assay relative to control; format: functional; settings: read-out: Activity
# A549 [6] = assay: Growth inhibition of human A549/ATCC cells assessed as cell growth at 0.01 uM incubated for 48 hrs by sulforhodamine B assay relative to control; format: functional; settings: A549, 48 h, read-out: Activity
# SK-MEL-5 = assay: Growth inhibition of human SK-MEL-5 cells incubated for 48 hrs by sulforhodamine B assay; format: functional, cell-based; settings: SK-MEL-5, 48 h
# HL-60(TB) = assay: Growth inhibition of human HL-60(TB) cells assessed as cell growth at 1 uM incubated for 48 hrs by sulforhodamine B assay relative to control; format: functional; settings: HL-60, 48 h, read-out: Activity
# HCC 2998 = assay: Growth inhibition of human HCC2998 cells assessed as cell growth at 1 uM incubated for 48 hrs by sulforhodamine B assay relative to control; format: functional; settings: HCC 2998, 48 h, read-out: Activity
# NCI-H23 = assay: Growth inhibition of human NCI-H23 cells assessed as cell growth at 100 uM incubated for 48 hrs by sulforhodamine B assay relative to control; format: functional; settings: NCI-H23, 48 h, read-out: Activity
# NCI-H460 [7] = assay: Growth inhibition of human NCI-H460 cells assessed as cell growth at 1 uM incubated for 48 hrs by sulforhodamine B assay relative to control; format: functional; settings: NCI-H460, 48 h, read-out: Activity
# BT-549 = assay: Growth inhibition of human BT549 cells assessed as cell growth at 1 uM incubated for 48 hrs by sulforhodamine B assay relative to control; format: functional; settings: BT-549, 48 h, read-out: Activity
# M14 = assay: Growth inhibition of human M14 cells assessed as cell growth at 0.01 uM incubated for 48 hrs by sulforhodamine B assay relative to control; format: functional; settings: M14, 48 h, read-out: Activity
# UACC-62 = assay: Growth inhibition of human UACC62 cells assessed as cell growth at 0.1 uM incubated for 48 hrs by sulforhodamine B assay relative to control; format: functional; settings: UACC-62, 48 h, read-out: Activity
# MDA-MB-468 = assay: Growth inhibition of human MDA-MB-468 cells incubated for 48 hrs by sulforhodamine B assay; format: functional, cell-based; settings: MDA-MB-468, 48 h
# PC-3 [8] = assay: Growth inhibition of human PC3 cells assessed as cell growth at 0.1 uM incubated for 48 hrs by sulforhodamine B assay relative to control; format: functional; settings: PC-3, 48 h, read-out: Activity
# ACHN [9] = assay: Growth inhibition of human ACHN cells assessed as cell growth at 0.01 uM incubated for 48 hrs by sulforhodamine B assay relative to control; format: functional; settings: read-out: Activity
# PC-3 [10] = assay: Growth inhibition of human PC3 cells assessed as cell growth at 0.01 uM incubated for 48 hrs by sulforhodamine B assay relative to control; format: functional; settings: PC-3, 48 h, read-out: Activity
# HCT-15 = assay: Growth inhibition of human HCT15 cells incubated for 48 hrs by sulforhodamine B assay; format: functional, cell-based; settings: HCT-15, 48 h
# DU-145 = assay: Growth inhibition of human DU145 cells assessed as cell growth at 0.01 uM incubated for 48 hrs by sulforhodamine B assay relative to control; format: functional; settings: DU-145, 48 h, read-out: Activity
# CAKI-1 = assay: Growth inhibition of human Caki1 cells assessed as cell growth at 0.01 uM incubated for 48 hrs by sulforhodamine B assay relative to control; format: functional; settings: CAKI-1, 48 h, read-out: Activity
# NCI-H226 = assay: Growth inhibition of human NCI-H226 cells assessed as cell growth at 0.01 uM incubated for 48 hrs by sulforhodamine B assay relative to control; format: functional; settings: NCI-H226, 48 h, read-out: Activity
# [11] = read-out: LC50 (the source's name)
# [12] = read-out: pLC50 (the source's name) (converted)
structure (smiles),measurement,setting,value
O=C(Nc1cccc(-n2cc(-c3ccncc3)c(-c3cc(O)cc(Cl)c3)n2)c1)c1ccc(N2CCOCC2)c(C(F)(F)F)c1,growth at 0.1 µM,786-0,94%
same,growth at 0.01 µM,OVCAR-4,100%
same,GI50,HOP-62; read-out: GI50,3.59 µM
same,CC50,HOP-62; [11],> 100 µM
same,TGI,HOP-62; read-out: TGI,58.2 µM
same,GI50,HOP-62; read-out: pGI50 (converted),3.55 µM
same,CC50,HOP-62; [12],> 100 µM
same,TGI,HOP-62; read-out: pTGI (converted),58.9 µM
same,GI50,MCF7 [1]; read-out: GI50,4.18 µM
same,LC50,MCF7 [1]; read-out: LC50,> 100 µM
same,TGI,MCF7 [1]; read-out: TGI,> 100 µM
same,GI50,MCF7 [1]; read-out: pGI50 (converted),4.17 µM
same,LC50,MCF7 [1]; read-out: pLC50 (converted),> 100 µM
same,TGI,MCF7 [1]; read-out: pTGI (converted),> 100 µM
same,growth at 1 µM,A549 [2],52%
same,growth at 0.1 µM,SNB-75,83%
same,growth at 0.01 µM,UO-31,85%
same,growth at 0.01 µM,Hs-578T,96%
same,GI50,NCI-H460 [3]; read-out: GI50,0.797 µM
same,CC50,NCI-H460 [3]; [11],> 100 µM
same,TGI,NCI-H460 [3]; read-out: TGI,34.8 µM
same,GI50,NCI-H460 [3]; read-out: pGI50 (converted),0.794 µM
same,CC50,NCI-H460 [3]; [12],> 100 µM
same,TGI,NCI-H460 [3]; read-out: pTGI (converted),3.55 µM
same,growth at 1 µM,MCF7 [4],82%
same,GI50,CCRF-CEM; read-out: GI50,0.543 µM
same,CC50,CCRF-CEM; [11],> 100 µM
same,TGI,CCRF-CEM; read-out: TGI,> 100 µM
same,GI50,CCRF-CEM; read-out: pGI50 (converted),0.562 µM
same,CC50,CCRF-CEM; [12],> 100 µM
same,TGI,CCRF-CEM; read-out: pTGI (converted),> 100 µM
same,growth at 1 µM,ACHN [5],52%
same,growth at 0.01 µM,A549 [6],103%
same,GI50,SK-MEL-5; read-out: GI50,2.33 µM
same,CC50,SK-MEL-5; [11],45.4 µM
same,TGI,SK-MEL-5; read-out: TGI,84.9 µM
same,GI50,SK-MEL-5; read-out: pGI50 (converted),2.34 µM
same,CC50,SK-MEL-5; [12],46.8 µM
same,TGI,SK-MEL-5; read-out: pTGI (converted),8.51 µM
same,growth at 1 µM,HL-60(TB),44%
same,growth at 1 µM,HCC 2998,70%
same,growth at 100 µM,NCI-H23,-12%
same,growth at 1 µM,NCI-H460 [7],44%
same,growth at 1 µM,BT-549,75%
same,growth at 0.01 µM,M14,95%
same,growth at 0.1 µM,UACC-62,91%
same,IC50,MDA-MB-468,3.42 µM
same,GI50,MDA-MB-468; read-out: GI50,3.42 µM
same,CC50,MDA-MB-468; [11],> 100 µM
same,TGI,MDA-MB-468; read-out: TGI,43.3 µM
same,GI50,MDA-MB-468; read-out: pGI50 (converted),3.39 µM
same,CC50,MDA-MB-468; [12],> 100 µM
same,TGI,MDA-MB-468; read-out: pTGI (converted),43.7 µM
same,growth at 0.1 µM,PC-3 [8],92%
same,growth at 0.01 µM,ACHN [9],100%
same,growth at 0.01 µM,PC-3 [10],93%
same,GI50,HCT-15; read-out: GI50,0.559 µM
same,CC50,HCT-15; [11],84.9 µM
same,TGI,HCT-15; read-out: TGI,11.3 µM
same,GI50,HCT-15; read-out: pGI50 (converted),0.562 µM
same,CC50,HCT-15; [12],85.1 µM
same,TGI,HCT-15; read-out: pTGI (converted),11.2 µM
same,growth at 0.01 µM,DU-145,100%
same,growth at 0.01 µM,CAKI-1,98%
same,growth at 0.01 µM,NCI-H226,98%
